The supplement of paper PMC10307832

Legend:
Test in all cases: relative viability (nuclei count vs DMSO), 5 days (fraction); higher = more cells survive
[1] = compound: C[C@@]1(C(=O)Nc2ccc(F)nc2)CCCN1c1nc(Nc2cc(C3CC3)n[nH]2)c2cccn2n1 + CC(=O)c1c(C)c2cnc(Nc3ccc(N4CCNCC4)cn3)nc2n(C2CCCC2)c1=O [Palbociclib] (partner 0.5 µM)
Summary of the method: (§1)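 One day after seeding in 1536-well plates, lung cancer cell lines were dosed by pin tool. Dosing was either single-drug or a fixed anchor-drug dose plus five library-drug doses (not always all listed) in √10 steps. After 5 days, nuclei were stained in one fix-and-stain step and counted on 4× images, and relative viability is the nuclei count of treated wells over that of vehicle wells, given as the median of duplicate plates.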

[2] = compound: C[C@@]1(C(=O)Nc2ccc(F)nc2)CCCN1c1nc(Nc2cc(C3CC3)n[nH]2)c2cccn2n1 + NC(=O)Nc1cc(-c2cccc(F)c2)sc1C(=O)N[C@H]1CCCNC1 [AZD7762] (partner 0.2 µM)
Summary of the method: as §1

[3] = compound: CC1(C)CNc2cc(NC(=O)c3cccnc3NCc3ccncc3)ccc21 [Motesanib] + Cc1nc(NC(=O)N2CCC[C@H]2C(N)=O)sc1-c1ccnc(C(C)(C)C(F)(F)F)c1 [Alpelisib] (partner 2 µM)
Summary of the method: as §1

[4] = compound: C[C@@]1(C(=O)Nc2ccc(F)nc2)CCCN1c1nc(Nc2cc(C3CC3)n[nH]2)c2cccn2n1 + CC(C)C[C@H](NC(=O)[C@H](Cc1ccccc1)NC(=O)c1cnccn1)B(O)O [Bortezomib] (partner 0.002 µM)
Summary of the method: as §1

Cell Line	relative viability ([1]; first compound 0.04 µM)	relative viability ([1]; first compound 0.1265 µM)	relative viability ([1]; first compound 0.4 µM)	relative viability ([1]; first compound 1.265 µM)	relative viability ([2]; first compound 0.04 µM)	relative viability ([2]; first compound 0.1265 µM)	relative viability ([2]; first compound 0.4 µM)	relative viability ([2]; first compound 1.265 µM)	relative viability ([3]; first compound 0.01 µM)	relative viability ([3]; first compound 0.03162 µM)	relative viability ([3]; first compound 0.1 µM)	relative viability ([3]; first compound 0.3162 µM)	relative viability ([3]; first compound 1 µM)	relative viability ([4]; first compound 0.04 µM)	relative viability ([4]; first compound 0.1265 µM)	relative viability ([4]; first compound 0.4 µM)	relative viability ([4]; first compound 1.265 µM)
NCI-H322M	0.393	0.362	0.374	0.45	0.45	0.424	0.492	0.35	0.713	0.737	0.837	0.751	0.778	1.22	0.894	1.06	1.1
NCI-H838	0.241	0.191	0.185	0.17	0.981	0.918	0.814	0.872	0.992	1.02	1.08	0.982	1.03	0.807	0.687	0.498	0.547
HARA	0.238	0.189	0.159	0.218	0.42	0.227	0.73	0.198	0.808	0.852	0.815	0.943	0.831	1.11	1.12	0.684	1.05
NCI-H2087	0.218	0.188	0.177	0.181	1.26	1.25	1.09	1.23	1.01	1.08	1.07	1.16	1.03	0.778	0.825	0.624	0.631
NCI-H1437	0.302	0.278	0.252	0.234	1	1.25	0.688	0.745	0.983	0.979	0.901	1.02	1.07	0.398	0.521	0.328	0.276
NCI-H1792	0.417	0.742	0.268	0.393	0.446	0.277	0.332	0.323	0.702	0.63	0.78	0.757	0.685	0.868	0.825	0.651	0.506
NCI-H650	0.305	0.211	0.263	0.256	1.16	0.609	0.729	0.828	0.925	0.85	1.14	1.09	1.08	0.699	0.762	0.605	0.46
201T	0.317	0.264	0.311	0.365	0.623	0.575	0.473	0.597	1.08	1.05	1.01	0.857	1.06	1.1	0.958	1.01	0.957
HCC-44	0.846	0.904	0.803	0.885	1.02	0.954	0.989	0.979	0.771	0.774	0.862	0.785	0.827	0.862	0.81	0.648	0.685
H3255	0.314	0.326	0.299	0.317	0.96	0.931	0.811	0.855	0.78	0.7	0.762	0.684	0.771	0.973	1.02	0.719	0.669
NCI-H647	0.398	0.413	0.353	0.367	0.402	0.591	0.452	0.32	1.02	1.21	1.1	1.33	1.09	1.15	0.9	0.706	0.791
NCI-H23	0.386	0.267	0.243	0.305	0.238	0.208	0.193	0.114	0.798	0.481	–	0.639	0.603	0.642	0.44	0.472	0.442
NCI-H460	0.226	0.0841	0.058	0.143	0.737	0.667	0.609	0.649	0.567	0.495	0.484	0.424	0.478	1.13	0.991	0.892	0.93
EKVX	0.387	0.277	0.279	0.286	0.671	0.505	0.489	0.578	0.778	0.883	0.875	0.922	0.895	1.01	1.05	0.796	0.926
EPLC-272H	0.253	0.308	0.285	0.261	0.215	0.187	0.212	0.164	0.908	1.12	0.898	0.897	0.914	0.859	0.78	0.702	0.878
NCI-H2126	0.353	0.309	0.342	0.359	0.993	0.716	0.569	0.648	0.77	0.723	0.724	0.768	0.699	1.08	0.861	0.769	0.746

Cell Line	relative viability ([1]; first compound 0.04 µM)	relative viability ([1]; first compound 0.1265 µM)	relative viability ([1]; first compound 0.4 µM)	relative viability ([1]; first compound 1.265 µM)	relative viability ([2]; first compound 0.04 µM)	relative viability ([2]; first compound 0.1265 µM)	relative viability ([2]; first compound 0.4 µM)	relative viability ([2]; first compound 1.265 µM)	relative viability ([3]; first compound 0.01 µM)	relative viability ([3]; first compound 0.03162 µM)	relative viability ([3]; first compound 0.1 µM)	relative viability ([3]; first compound 0.3162 µM)	relative viability ([3]; first compound 1 µM)	relative viability ([4]; first compound 0.04 µM)	relative viability ([4]; first compound 0.1265 µM)	relative viability ([4]; first compound 0.4 µM)	relative viability ([4]; first compound 1.265 µM)
LXF-289	0.644	0.541	0.62	0.661	1.1	1.03	0.968	1.12	0.983	1.05	1.06	1.05	1.04	1.01	0.929	0.961	1
NCI-H2405	0.47	0.303	0.391	0.402	0.619	0.483	0.472	0.313	–	0.738	0.745	0.86	0.942	1	0.682	0.835	0.896
NCI-H1755	0.403	0.433	0.469	0.494	0.481	0.424	0.378	0.406	0.879	0.905	1.02	1.03	0.909	0.957	0.838	0.85	0.881
HCC-78	0.446	0.377	0.464	0.363	0.593	0.419	0.418	0.4	0.337	0.304	0.35	0.356	0.333	0.445	0.855	0.293	0.317
LOU-NH91	0.528	0.471	0.546	0.513	0.683	0.723	0.626	0.642	0.746	0.759	0.708	0.707	0.802	0.482	0.519	0.481	0.493
NCI-H3122	0.158	0.183	0.171	0.185	0.79	0.88	0.651	0.831	0.789	0.79	0.915	0.921	0.946	0.993	1.03	1.04	0.944
HCC-827	0.418	0.466	0.48	0.459	0.273	0.19	0.241	0.191	0.99	1.01	1.03	1.03	1.03	1.07	1.03	0.971	0.926
NCI-H1975	0.564	0.521	0.374	0.452	0.64	0.98	0.498	0.532	0.681	0.588	0.615	0.61	0.675	0.344	0.34	0.299	0.308
NCI-H1651	0.494	0.442	0.439	0.491	0.52	0.371	0.409	0.447	0.987	0.909	0.823	0.883	1.06	0.956	0.871	0.864	0.825
NCI-H441	0.132	0.146	0.116	0.13	1.07	0.651	0.528	0.856	0.699	0.998	1.03	0.636	0.847	0.567	0.285	0.276	0.463
LCLC-103H	0.471	0.452	0.48	0.465	0.7	0.748	0.6	0.691	–	0.947	1.06	0.931	0.987	1.07	1.08	0.788	0.958
LCLC-97TM1	0.0888	0.108	0.0814	0.145	0.284	0.234	0.134	0.128	0.238	0.241	0.283	0.296	0.263	0.637	0.189	0.132	0.0641
NCI-H727	0.575	0.528	0.404	0.38	0.573	0.386	0.443	0.345	0.599	0.678	0.504	0.514	0.602	0.763	0.385	0.339	0.338
NCI-H1355	0.312	0.269	0.242	0.321	0.694	0.579	0.539	0.598	0.825	0.831	0.937	0.933	0.828	1.15	1.04	0.948	0.969
HOP-62	0.51	0.42	0.359	0.475	0.812	0.541	0.427	0.547	0.91	0.663	0.922	1.3	1.15	0.752	0.67	0.704	1.02
NCI-H2085	0.485	0.455	0.439	0.443	1.12	0.948	0.927	0.913	0.939	1.01	1.02	0.943	1.05	1.04	0.927	0.834	0.945
